Measured values reported in patent publication US20220249441A1, “Homodimeric Tobramycin Adjuvant Repurposes Novobiocin as an Effective Antibacterial Agent Against Gram-Negative Bacteria” (priority 2019, published 2022).
≈ marks a conversion by molar mass, not a printed value.

Key:
[1] = tested on: A. baumannii ATCC 17978 and resistant mutants; assay: microbe, parasite or virus in culture; format: cell-based, Acinetobacter baumannii
Description: Antimicrobial Susceptibility Assay. The in vitro antimicrobial activity of all compounds/antibiotics against a panel of bacteria was evaluated by microbroth dilution method in accordance with the Clinical and Laboratory Standards Institute (CLSI) guidelines (using ATCC strains as quality control strains) (54). Overnight grown bacterial cultures were diluted in saline to achieve a 0.5 McFarland turbidity, followed by 1:50 dilution in Mueller-Hinton broth (MHB) for inoculation to a final concentration of approximately 5×10^5 CFU/mL. […] The lowest concentration that prevented the visible growth of bacteria was defined as the MIC for each antimicrobial agent. The broth with or without bacterial cells was used as positive or negative control, respectively.
(§1) Development of Resistance Study. […] Tobramycin and colistin were included as controls. At 24-hour intervals, the cultures were assessed for growth. […] This serial passaging was repeated for 8 days.

[2] = tested on: MDR/XDR P. aeruginosa, Acinetobacter baumannii, Escherichia coli, Klebsiella pneumoniae, and Enterobacter cloacae; format: cell-based
Description: Next, we investigated whether tobramycin by itself would potentiate novobiocin against Gram-negative bacteria.
Checkerboard Assay. Combination studies with different antibiotics were performed in 96-well plates as previously described (19). Briefly, the antibiotic of interest was serially diluted in MHB along the abscissa while the adjuvant (tobramycin homodimer) was serially diluted in MHB along the ordinate. This creates a 10×7 matrices wherein each well consists of a combination of different antibiotic and adjuvant concentrations. Overnight grown bacterial cultures were diluted in saline to achieve a 0.5 McFarland turbidity, followed by 1:50 dilution in Mueller-Hinton broth (MHB) for inoculation to a final concentration of approximately 5×10^5 CFU/mL. […] MIC was recorded as wells with the lowest concentration of drugs with no bacterial growth. The fractional inhibitory concentration (FIC) for each antibiotic was calculated by dividing the MIC of the antibiotic in the presence of adjuvant by the MIC of the antibiotic alone. Similarly, the FIC of adjuvant was calculated by dividing the MIC of the adjuvant in the presence of antibiotic by the MIC of the adjuvant alone. FIC index is the sum of both FICs. FIC indices of ≤0.5 were deemed synergistic; >0.5-4, no interaction; and >4, antagonistic.

P. aeruginosa = assay: Checkerboard assay (antibiotic + adjuvant combination MIC); format: cell-based, Pseudomonas aeruginosa
Galleria mellonella = Galleria mellonella tolerability study; format: in vivo; conditions: 100 mg/kg single dose; after 96 h (4 days)
Description: Galleria mellonella In vivo Larvae-Infection Model. In vivo synergistic effects were determined using Galleria mellonella infection model, as previously described (49). Briefly, larvae were purchased from The Worm Lady Live Feeder (ON, Canada), stored in their natural habitat at 16° C., and used within 10 days of delivery. The larvae (average weight of 250 mg) were used for tolerability and efficacy studies. Tolerability study was performed by injecting a 10 μL aliquot of antimicrobial agents only at concentrations equivalent to 100 mg/kg or 200 mg/kg. The larvae (ten in each group) were incubated at 37° C. and monitored for 96 h. For efficacy studies, the virulence and bacterial load required to kill 100% of the larvae within 24 h (with no treatment) was first determined, which is approximately 10 CFU. Overnight grown culture of respective MDR A. baumannii isolate was standardized to 0.5 McFarland standard and diluted in PBS to a final concentration of 10^3 CFU/mL. A 10 μL aliquot of this solution (˜10 CFU) was injected into each larva and incubated for 3 h at 37° C. […] Larvae treated with 10 μL of PBS or high concentrations of test antibiotics served as negative and positive control, respectively. The larvae were incubated at 37° C. in Petri dishes lined with filter paper and scored for survivability every 6 h for up to 36 h. […]

A. baumannii ATCC 17978 = assay: microbe, parasite or virus in culture; format: cell-based, Acinetobacter baumannii; conditions: for fold change in MIC: after 7 days of serial passaging
Description: as §1

P. aeruginosa PAO1 = assay: Outer membrane permeabilization assay (NPN uptake); format: cell-based, Pseudomonas aeruginosa
Description: Outer Membrane Permeabilization Assay. […] Briefly, an overnight grown P. aeruginosa PAO1 culture was subcultured (1 in 100) in fresh LB broth and grown to a mid-logarithmic phase (approximately 2 h, OD600=0.5-0.6). The cells were harvested by centrifuging for 10 min at 1000 g and room temperature, washed twice in PBS, and resuspended in half volume of PBS. This suspension was used in standard microtiter plate assay. […] PMBN, a known outer membrane permeabilizer, served as a positive control while cells +NPN (without test compounds) served as a negative control. Four independent replicates were conducted, and the data were corrected for any background fluorescence.

[3] = tested on: P. aeruginosa PAO1 and efflux deficient mutants, MDR/XDR isolates; assay: microbe, parasite or virus in culture; format: cell-based, Pseudomonas aeruginosa; conditions: Pseudomonas aeruginosa
Description: Antimicrobial Susceptibility Assay. The in vitro antimicrobial activity of all compounds/antibiotics against a panel of bacteria was evaluated by microbroth dilution method in accordance with the Clinical and Laboratory Standards Institute (CLSI) guidelines (using ATCC strains as quality control strains) (54). […] The broth with or without bacterial cells was used as positive or negative control, respectively.

[4] = Acinetobacter baumannii, ATCC17978, 18 h, Mutant C (seven serial passages, sub-MICs novobiocin + 7.1 μM compound 1)
[5] = Acinetobacter baumannii, ATCC17978, Mutant A (seven serial passages, sub-MICs novobiocin)
[6] = Acinetobacter baumannii, ATCC17978, Mutant B (seven serial passages, sub-MICs colistin)
[7] = Acinetobacter baumannii, ATCC17978, Wild-type A. baumannii ATCC 17978
[8] = tobramycin-resistant MDR/XDR isolates

CC(C)(O/N=C(\C(=O)N[C@@H]1C(=O)N2C(C(=O)[O-])=C(C[n+]3ccccc3)CS[C@H]12)c1csc(N)n1)C(=O)O [Ceftazidime, reference compound]
MIC [1, 4]: 16 µg/mL
MIC [1, 5]: 32 µg/mL (≈ 58.5 µM)
MIC [1, 6]: 1 µg/mL (≈ 1.83 µM)
MIC [1, 7]: 16 µg/mL (≈ 29.3 µM)
synergy with novobiocin ([2]; Gram-negative bacteria): did not show any synergy
MIC Alone (P. aeruginosa; P. aeruginosa PAO1, β-lactam antibiotic alone): 2 µg/mL
MIC of CAZ alone (P. aeruginosa; PA 259-96918): 512 µg/mL
MIC of CAZ alone (P. aeruginosa; PA 260-97103): 32 µg/mL
MIC of CAZ alone (P. aeruginosa; PA 262-101856): 16 µg/mL
MIC of CAZ alone (P. aeruginosa; PA 264-104354): 128 µg/mL
MIC of CAZ alone (P. aeruginosa; PA 86052): 64 µg/mL
MIC of CAZ alone (P. aeruginosa; PA 88949): 64 µg/mL
MIC of CAZ alone (P. aeruginosa; PA 91433): 4 µg/mL
MIC of CAZ alone (P. aeruginosa; PA 100036): 8 µg/mL
MIC of CAZ alone (P. aeruginosa; PA 101243): 64 µg/mL
MIC of CAZ alone (P. aeruginosa; PA 101885): 8 µg/mL
MIC of CAZ alone (P. aeruginosa; PA 107092): 128 µg/mL
MIC of CAZ alone (P. aeruginosa; PA 108590): 32 µg/mL
MIC of CAZ alone (P. aeruginosa; PA 109084): 64 µg/mL
MIC of CAZ alone (P. aeruginosa; PA 114228): 8 µg/mL
MIC of CAZ alone (P. aeruginosa; PAO1): 2 µg/mL
MIC of CAZ alone (P. aeruginosa; PAO200 (efflux-deficient)): 1 µg/mL
MIC of CAZ alone (P. aeruginosa; PAO750 (efflux-deficient)): 0.5 µg/mL

Colistin
larvae killed (mortality) (Galleria mellonella): 90%
fold change in MIC (A. baumannii ATCC 17978): 1024 fold
MIC ([1]; Mutant A (seven serial passages, sub-MICs novobiocin)): 8 µg/mL
MIC ([1]; Mutant B (seven serial passages, sub-MICs colistin)): 1024 µg/mL
MIC ([1]; Mutant C (seven serial passages, sub-MICs novobiocin + 7.1 μM compound 1)): 0.031 µg/mL
MIC ([1]; Wild-type A. baumannii ATCC 17978): 0.063 µg/mL

NC[C@H]1O[C@H](O[C@H]2[C@H](O)[C@@H](O[C@H]3O[C@H](CO)[C@@H](O)[C@H](N)[C@H]3O)[C@H](N)C[C@@H]2N)[C@H](N)C[C@@H]1O [Tobramycin]
MIC (A. baumannii ATCC 17978; Acinetobacter baumannii, ATCC17978, 168 h, read-out: MIC after serial passaging): 512 µg/mL (≈ 1100 µM)
fold change in MIC (A. baumannii ATCC 17978): 512 fold
outer membrane permeabilization (NPN fluorescence) (P. aeruginosa PAO1): weak fluorescence
MIC [3]: 1 µg/mL (≈ 2.14 µM)
MIC ([3]; PAO200 (first column so headed)): 1 µg/mL (≈ 2.14 µM)
MIC ([3]; PAO200 (second column so headed)): 1 µg/mL (≈ 2.14 µM)
MIC [1, 4]: 1 µg/mL
MIC [1, 5]: 1 µg/mL (≈ 2.14 µM)
MIC [1, 6]: 0.25 µg/mL (≈ 0.535 µM)
MIC [1, 7]: 1 µg/mL (≈ 2.14 µM)
FICI with novobiocin ([2]; tobramycin-susceptible and tobramycin-resistant Gram-negative bacteria strains): 0.75
interaction with antibiotics (checkerboard) (P. aeruginosa; PAO1, all antibiotics tested except tobramycin, vancomycin and colistin): not synergistic
FICI with ceftazidime or aztreonam (P. aeruginosa; [8]): 0.56-0.75
tobramycin concentration at which synergy with imipenem was observed (P. aeruginosa; [8]): ≥ 100 µM
FICI with aztreonam, ceftazidime and imipenem (P. aeruginosa; tobramycin-susceptible MDR isolates): 0.75
FICI with aztreonam, ceftazidime and imipenem (P. aeruginosa; wildtype P. aeruginosa): 0.75-1.00
